Reference: US20260256794A1, “Oral Dynamine Formulations and Methods Therefor” (Ortho-Nutra, LLC, priority 2023, published 2026)

Tests used:
Assay type in all cases: in vivo, human
subjects [1] = assay: VAS-Mood; design: VAS-Mood rating, Mean / VAS-Mood changes from baseline, Mean Difference ± SE / VAS-Mood area under the curve, Mean Difference ± SE / VAS-Mood area under the curve, Mean: scale not given here
Procedure: (§1) The inventors have discovered various compositions and methods of improving various indices of neurological and neuroenergetic functions by administering 100 mg (once daily) dosages of DYNAMINE™ (dosage between 1.0 and 1.4 mg/kg) as described in the following:
(§2) All neuroenergetic tests as listed below were performed and data were collected after 0 and 4 days of assigned supplements (with acute effects also measured at day 4 over 180 minutes):
(§3) All VAS Measurement (Energy, Sustained Energy, Mental Stamina, Ability to Focus, Ability to Concentrate, Motivation to Accomplish Difficult Tasks, Drive, Vigor, Level of Positive Outlook, Mood, Feelings of Well-Being, Tolerate Stress); Day 0: Two tests were completed. The average of both scores was computed and this value was used in all statistical analysis. Day 4 (0 minutes after ingesting dose #4): Two tests were completed. The average of both scores was computed and this value was used in all statistical analysis. Day 4 (60, 120, and 180 minutes after ingesting dose #4): One test was completed at each time point.
(§4) Neuroenergic parameters are inherently subjective, nevertheless significant in human behavior and well-being. To allow for a standardization among different subjects, the following experiments were performed using a visual analog scale using anchor statements (lowest possible/highest possible) in which subjects were asked to rate their subjective experience with respect to the specific neuroenergic parameters tested.
VAS-Mood: In this subjective test, subjects were asked to rate their personal level of energy on a VAS scale using the prompt of “My mood right now is . . . ” (with rating lowest possible to highest possible)”. Results were collected as noted above and Table 31 provides exemplary results for Day 0 versus Day 4 ratings, whereas Table 32 provides exemplary acute results measured at Day 4 over a duration of 180 minutes.

subjects [2] = assay: VAS-Well-Being; design: VAS-Well-Being rating, Mean / VAS-Well-Being changes from baseline, Mean Difference ± SE / VAS-Well-Being area under the curve, Mean Difference ± SE / VAS-Well-Being area under the curve, Mean: scale not given here
Procedure: as §1, §2, §3, §4
VAS-Well-Being: In this subjective test, subjects were asked to rate their personal level of energy on a VAS scale using the prompt of “My feeling of well-being right now is . . . ” (with rating lowest possible to highest possible)”. Results were collected as noted above and Table 34 provides exemplary results for Day 0 versus Day 4 ratings, whereas Table 35 provides exemplary acute results measured at Day 4 over a duration of 180 minutes.

subjects [3] = assay: Stroop-Accuracy
Procedure: as §1, §2
Stroop Color Matching Test (Total Score, Accuracy %, Average Score): Day 0: Two blocks of three tests were completed. Each block of three tests was separated by 10 minutes. The median of each block was taken and then those two scores were averaged. This value was used in all statistical analysis. Day 4: Three tests were completed at four time points: after 0, 60, 120, and 180 minutes of taking dose #4. The median of the three tests at each time point was used in all statistical analysis.
The Stroop Color and Word Test (SCWT, or Stroop test) is a neuropsychological test extensively used to assess the ability to inhibit cognitive interference that occurs when the processing of a specific stimulus feature impedes the simultaneous processing of a second stimulus attribute, well-known as the Stroop effect (see e.g., Front Psychol. 2017; 8:557). Here, subjects were required to read three different tables as fast as possible. Two of them represent the “congruous condition” in which participants are required to read names of colors (‘color-words’) printed in black ink (W) and name different color patches (C). However, in the third table, the color-word (CW) condition, color-words are printed in an inconsistent color ink (e.g., the word “red” is printed in green ink). In this incongruent condition, participants are required to name the color of the ink instead of reading the word. In other words, the participants are required to perform a less automated task (i.e., naming ink color) while inhibiting the interference arising from a more automated task (i.e., reading the word). This difficulty in inhibiting the more automated process is called the Stroop effect. The Stroop test is predominantly used to measure the ability to inhibit cognitive interference. However, some sources also report its application to measure other cognitive functions such as attention, processing speed, cognitive flexibility, and working memory.
Stroop-Accuracy: The results for this test were based on an accuracy score comparing performance between Day 0 and Day 4, with Day 4 including tests over a duration of 180 minutes. Results were collected as noted above and Table 43 provides exemplary results for Day 0 versus Day 4 ratings, whereas Table 44 provides exemplary acute results measured at Day 4 over a duration of 180 minutes.

subjects [4] = assay: Hemodynamics: systolic blood pressure; conditions: for Systolic blood pressure changes from baseline, Mean Difference ± SE / Systolic blood pressure changes from baseline, effect size d: between groups (placebo)
Procedure: as §1
(§5) Hemodynamics Systolic Blood Pressure, Diastolic Blood Pressure, Heart Rate were taken Pre and Post Stroop Test on Day 0; Pre and Post Stroop Test after 4 Days of Supplementation 0, 60, 120, and 180 minutes after ingestion of 4th dose.
(§6) For hemodynamic parameters, systolic blood pressure, diastolic blood pressure, and heart rate were taken pre- and post-Stroop Test on Day 0, and pre- and post-Stroop Test after 4 Days of Supplementation 0, 60, 120, and 180 minutes after ingestion of 4th dose.

subjects [5] = assay: Hemodynamics: heart rate
Procedure: as §5, §6

[6] = 100 mg once daily, Day 4, 0-180 min
[7] = 100 mg once daily, Day 4, 0-180 min, vs Group A (placebo)
[8] = 100 mg once daily, Day 4, 0 min after dose #4
[9] = 100 mg once daily, Day 4, 60 min-0 min, vs Group A (placebo)
[10] = 100 mg once daily, Day 4, 60 min after dose #4
[11] = 100 mg once daily, Day 4, 120 min-0 min, vs Group A (placebo)
[12] = 100 mg once daily, Day 4, 120 min after dose #4
[13] = 100 mg once daily, Day 4, 180 min-0 min, vs Group A (placebo)
[14] = 100 mg once daily, Day 4, 180 min after dose #4
[15] = 100 mg once daily, Day 4, 60 min-0 min
[16] = 100 mg once daily, Day 4, 120 min-0 min
[17] = 100 mg once daily, Day 4, 180 min-0 min

Compound: COc1nc2c(c(=O)n1C)n(C)c(=O)n2C [methylliberine, 2-methoxy-1,7,9-trimethylpurine-6,8-dione]
- VAS-Mood area under the curve, Mean (subjects [1]; [6]): 1220
- VAS-Mood area under the curve, Mean Difference ± SE (subjects [1]; [7]): 37.4 ± 250.7
- VAS-Mood area under the curve, effect size d (subjects [1]; [7]): 0.12
- VAS-Mood rating, Mean (subjects [1]; [8]): 6.1
- VAS-Mood changes from baseline, Mean Difference ± SE (subjects [1]; [9]): 0.38 ± 0.18
- VAS-Mood changes from baseline, effect size d (subjects [1]; [9]): 0.43
- VAS-Mood rating, Mean (subjects [1]; [10]): 6.7
- VAS-Mood changes from baseline, Mean Difference ± SE (subjects [1]; [11]): 0.45 ± 0.27
- VAS-Mood changes from baseline, effect size d (subjects [1]; [11]): 0.41
- VAS-Mood rating, Mean (subjects [1]; [12]): 7.0
- VAS-Mood changes from baseline, Mean Difference ± SE (subjects [1]; [13]): 0.72 ± 0.30
- VAS-Mood changes from baseline, effect size d (subjects [1]; [13]): 0.65
- VAS-Mood rating, Mean (subjects [1]; [14]): 7.1
- VAS-Mood rating, Mean (subjects [1]; Day 0 (before supplementation)): 6.5
- VAS-Well-Being area under the curve, Mean (subjects [2]; [6]): 1239
- VAS-Well-Being area under the curve, Mean Difference ± SE (subjects [2]; [7]): 14.9 ± 43.0
- VAS-Well-Being area under the curve, effect size d (subjects [2]; [7]): −0.05
- VAS-Well-Being rating, Mean (subjects [2]; [8]): 6.4
- VAS-Well-Being changes from baseline, Mean Difference ± SE (subjects [2]; [9]): 0.16 ± 0.16
- VAS-Well-Being changes from baseline, effect size d (subjects [2]; [9]): 0.22
- VAS-Well-Being rating, Mean (subjects [2]; [10]): 6.8
- VAS-Well-Being changes from baseline, Mean Difference ± SE (subjects [2]; [11]): 0.46 ± 0.29
- VAS-Well-Being changes from baseline, effect size d (subjects [2]; [11]): 0.45
- VAS-Well-Being rating, Mean (subjects [2]; [12]): 7.3
- VAS-Well-Being changes from baseline, Mean Difference ± SE (subjects [2]; [13]): 0.54 ± 1.34
- VAS-Well-Being changes from baseline, effect size d (subjects [2]; [13]): 0.52
- VAS-Well-Being rating, Mean (subjects [2]; [14]): 7.2
- VAS-Well-Being rating, Mean (subjects [2]; Day 0 (before supplementation)): 6.8
- Stroop accuracy, Mean (subjects [3]; [8]): 99.2%
- Stroop accuracy, Mean (subjects [3]; [10]): 99.1%
- Stroop accuracy, Mean (subjects [3]; [12]): 99.0%
- Stroop accuracy, Mean (subjects [3]; [14]): 98.9%
- Stroop accuracy, Mean (subjects [3]; Day 0 (before supplementation)): 99.2%
- Systolic blood pressure, Mean (subjects [4]; 100 mg once daily, Day 4, 0 min after 4th dose): 121.4 mm Hg
- Systolic blood pressure changes from baseline, Mean Difference ± SE (subjects [4]; [15]): 1.16 ± 2.57 mm Hg
- Systolic blood pressure changes from baseline, effect size d (subjects [4]; [15]): −0.12
- Systolic blood pressure, Mean (subjects [4]; 100 mg once daily, Day 4, 60 min after 4th dose): 117.9 mm Hg
- Systolic blood pressure changes from baseline, Mean Difference ± SE (subjects [4]; [16]): −0.60 ± 2.22 mm Hg
- Systolic blood pressure changes from baseline, effect size d (subjects [4]; [16]): 0.06
- Systolic blood pressure, Mean (subjects [4]; 100 mg once daily, Day 4, 120 min after 4th dose): 120.6 mm Hg
- Systolic blood pressure changes from baseline, Mean Difference ± SE (subjects [4]; [17]): 2.40 ± 2.25 mm Hg
- Systolic blood pressure changes from baseline, effect size d (subjects [4]; [17]): −0.27
- Systolic blood pressure, Mean (subjects [4]; 100 mg once daily, Day 4, 180 min after 4th dose): 120.0 mm Hg
- Systolic blood pressure, Mean (subjects [4]; Day 0 (before supplementation)): 118.6 mm Hg
- Heart rate, Mean (subjects [5]; 100 mg once daily, Day 4): 69.8 beats/min
- Heart rate, Mean (subjects [5]; Day 0 (before supplementation)): 71.4 beats/min
